Experimental data from ChEMBL document CHEMBL1131484, “Human growth hormone-releasing hormone hGHRH(1-29)-NH2: systematic structure-activity relationship studies” (J Med Chem, 1998).
“And” between values parts separate entries of the source, which are not always exact repeats. Equal values may be shown once. Square brackets hold non-standard residues; d marks the D form. Peptide text beside a SMILES is read from it. αMeY = C[C@](N)(Cc1ccc(O)cc1)C(=O)O

biological target: T1, Growth hormone-releasing hormone receptor (Rattus norvegicus) (UniProt Q02644); assay: Potency for growth hormone releasing hormone receptor (GHRFR) relative to human GHRH(1-40)OH- in the rat pituitary cell culture assay; assay type: functional, cell-based; settings: Pituitary gland cell
T1 sequence (whole entry): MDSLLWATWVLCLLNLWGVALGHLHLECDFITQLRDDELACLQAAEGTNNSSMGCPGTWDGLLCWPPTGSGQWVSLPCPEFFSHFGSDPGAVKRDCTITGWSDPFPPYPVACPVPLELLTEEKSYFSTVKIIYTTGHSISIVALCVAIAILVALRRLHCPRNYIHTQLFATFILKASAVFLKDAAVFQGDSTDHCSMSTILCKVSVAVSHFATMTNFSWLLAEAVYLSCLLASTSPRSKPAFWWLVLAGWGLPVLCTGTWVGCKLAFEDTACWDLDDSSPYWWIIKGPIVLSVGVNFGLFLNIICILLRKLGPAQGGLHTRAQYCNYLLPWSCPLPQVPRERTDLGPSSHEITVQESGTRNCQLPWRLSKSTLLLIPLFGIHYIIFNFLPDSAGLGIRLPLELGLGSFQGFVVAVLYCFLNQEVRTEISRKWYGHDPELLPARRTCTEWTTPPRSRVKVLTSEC

Relative potency | Compound
1.1 | CCCC[C@H]1NC(=O)[C@H]([C@@H](C)CC)NC(=O)[C@@H](NC(=O)[C@H](Cc2c[nH]cn2)NC(=O)[C@H](CC(C)C)NC(=O)[C@H](CC(C)C)NC(=O)[C@H](CCCCN)NC(=O)[C@H](CCCN=C(N)N)NC(=O)[C@H](Cc2ccccc2)NC(=O)[C@@H](NC(=O)[C@H](CC(C)C)NC(=O)[C@H](CCC(N)=O)NC(=O)[C@H](C)NC(=O)[C@H](CC(C)C)NC(=O)[C@@H](NC(=O)[C@H](CCCN=C(N)N)NC(=O)[C@H](CCCN=C(N)N)NC(=O)[C@H](Cc2ccc(O)cc2)NC(=O)[C@H](CO)NC(=O)[C@H](CO)NC(=O)[C@@H](NC(=O)[C@H](Cc2ccccc2)NC(=O)[C@@H](NC(=O)[C@H](C)NC(=O)[C@H](CC(=O)O)NC(=O)[C@H](C)NC(=O)[C@@](C)(N)Cc2c[nH]cn2)[C@@H](C)CC)[C@@H](C)O)[C@@H](C)CC)[C@@H](C)CC)CSSC[C@@H](C(N)=O)NC(=O)[C@H](CC(N)=O)NC1=O
5.3 and 8.8 | CC[C@H](C)[C@H](NC(=O)[C@H](C)NC(=O)[C@H](CC(=O)O)NC(=O)[C@H](C)NC(=O)[C@@H](N)Cc1ccc(O)cc1)C(=O)N[C@@H](Cc1ccccc1)C(=O)N[C@H](C(=O)N[C@@H](CC(N)=O)C(=O)N[C@@H](CO)C(=O)N[C@@H](Cc1ccc(O)cc1)C(=O)N[C@@H](CCCN=C(N)N)C(=O)N[C@@H](CCCCN)C(=O)N[C@H](C(=O)N[C@@H](CC(C)C)C(=O)NCC(=O)N[C@H](CCC(N)=O)C(=O)N[C@H](CC(C)C)C(=O)N[C@H](CO)C(=O)N[C@H](C)C(=O)N[C@H](CCCN=C(N)N)C(=O)N[C@H](CCCCN)C(=O)N[C@@H]1CCC(=O)NCCCC[C@@H](C(=O)N[C@H](C(=O)N[C@@H](CCSC)C(=O)N[C@@H](CO)C(=O)N[C@@H](CCCN=C(N)N)C(N)=O)[C@@H](C)CC)NC(=O)[C@H](CCC(N)=O)NC(=O)[C@@H](CC(C)C)NC1=O)C(C)C)[C@@H](C)O
1.3 | H-YADAIFTNSYRKVLGQLSARKLLADIMSR-NH2
2.2 | CC[C@H](C)[C@H](NC(=O)[C@H](C)NC(=O)[C@H](CC(=O)O)NC(=O)[C@H](C)NC(=O)[C@@H](N)Cc1ccc(O)cc1)C(=O)N[C@@H](Cc1ccccc1)C(=O)N[C@H](C(=O)N[C@@H](CC(N)=O)C(=O)N[C@@H](CO)C(=O)N[C@@H](Cc1ccc(O)cc1)C(=O)N[C@@H](CCCN=C(N)N)C(=O)N[C@@H](CCCCN)C(=O)N[C@H](C(=O)N[C@@H](CC(C)C)C(=O)NCC(=O)N[C@@H](CCC(N)=O)C(=O)N[C@@H](CC(C)C)C(=O)N[C@@H](CO)C(=O)N[C@@H](C)C(=O)N[C@@H](CCCN=C(N)N)C(=O)N[C@@H](CCCCN)C(=O)N[C@@H](CC(C)C)C(=O)N[C@@H](CC(C)C)C(=O)N[C@@H](CCC(N)=O)C(=O)N[C@@H](CC(=O)O)C(=O)N[C@H](C(=O)N[C@@H](CCSC)C(=O)N[C@@H](C)C(=O)N[C@@H](CCCN=C(N)N)C(N)=O)[C@@H](C)CC)C(C)C)[C@@H](C)O (stereo in doubt; 39)
0.1 | H-YADAAFTNSYRKVLGQLSARKLLQDIMSR-NH2
10.7 | CCCC[C@H]1NC(=O)[C@H]([C@@H](C)CC)NC(=O)[C@H](NC(=O)[C@H](CCC(N)=O)NC(=O)[C@H](CC(C)C)NC(=O)[C@H](CC(C)C)NC(=O)[C@H](CCCCN)NC(=O)[C@H](CCCN=C(N)N)NC(=O)[C@H](C)NC(=O)[C@H](CO)NC(=O)[C@H](CC(C)C)NC(=O)[C@H](CCC(N)=O)NC(=O)[C@H](C)NC(=O)[C@H](CC(C)C)NC(=O)[C@@H](NC(=O)[C@H](CCCCN)NC(=O)[C@H](CCCN=C(N)N)NC(=O)[C@H](Cc2ccc(O)cc2)NC(=O)[C@H](CO)NC(=O)[C@H](CC(N)=O)NC(=O)[C@@H](NC(=O)[C@H](Cc2ccccc2)NC(=O)[C@@H](NC(=O)[C@H](C)NC(=O)[C@H](CC(=O)O)NC(=O)[C@H](C)NC(=O)[C@@](C)(N)Cc2ccc(O)cc2)[C@@H](C)CC)[C@@H](C)O)C(C)C)CCC(=O)NCC[C@H](C(N)=O)NC(=O)[C@H](CO)NC1=O
0.088 | CC[C@@H](C)[C@@H](NC(=O)[C@@H](C)NC(=O)[C@@H](CC(=O)O)NC(=O)[C@@H](C)NC(=O)[C@H](N)Cc1ccc(O)cc1)C(=O)N[C@H](Cc1ccccc1)C(=O)N[C@@H](C(=O)N[C@H](CC(N)=O)C(=O)N[C@H](CO)C(=O)N[C@H]1CCC(=O)NCCCC[C@H](C(=O)N[C@@H](CC(C)C)C(=O)NCC(=O)N[C@H](CCC(N)=O)C(=O)N[C@H](CC(C)C)C(=O)N[C@H](CO)C(=O)N[C@H](C)C(=O)N[C@H](CCCN=C(N)N)C(=O)N[C@H](CCCCN)C(=O)N[C@H](CC(C)C)C(=O)N[C@H](CC(C)C)C(=O)N[C@H](CCC(N)=O)C(=O)N[C@H](CC(=O)O)C(=O)N[C@@H](C(=O)N[C@H](CCSC)C(=O)N[C@H](CO)C(=O)N[C@H](CCCN=C(N)N)C(N)=O)[C@H](C)CC)NC(=O)[C@@H](CCCCN)NC(=O)[C@H](CCCN=C(N)N)NC1=O)[C@H](C)O
25.6 | CC[C@H](C)[C@H](NC(=O)[C@H](C)NC(=O)[C@H](CC(=O)O)NC(=O)[C@H](C)NC(=O)[C@@](C)(N)Cc1ccc(O)cc1)C(=O)N[C@@H](Cc1ccccc1)C(=O)N[C@H](C(=O)N[C@@H](CC(N)=O)C(=O)N[C@@H](CO)C(=O)N[C@@H](Cc1ccc(O)cc1)C(=O)N[C@@H](CCCN=C(N)N)C(=O)N[C@@H](CCCCN)C(=O)N[C@H](C(=O)N[C@@H](CC(C)C)C(=O)N[C@@H](C)C(=O)N[C@@H](CCC(N)=O)C(=O)N[C@@H](CC(C)C)C(=O)N[C@@H](CO)C(=O)N[C@@H](C)C(=O)N[C@@H](CCCN=C(N)N)C(=O)N[C@@H](CCCCN)C(=O)N[C@@H](C)C(=O)N[C@@H](CC(C)C)C(=O)N[C@@H](CCC(N)=O)C(=O)N[C@@H](CC(=O)O)C(=O)N[C@H](C(=O)N[C@@H](CCSC)C(=O)N[C@@H](CO)C(=O)N[C@@H](CCCN=C(N)N)C(N)=O)[C@@H](C)CC)C(C)C)[C@@H](C)O (H-[αMeY]ADAIFTNSYRKVLAQLSARKALQDIMSR-NH2)
